In patent US20230017045A1, “PYRIDINE AND PYRIMIDINE CARBOXYLATE HERBICIDES AND METHODS OF USE THEREOF” (Dow AgroSciences LLC, priority 2017, published 2023):
Where two headings read alike, the source gives them in different places.

Test system: test plant species
Assay: Post-emergent herbicidal activity test (greenhouse, foliar spray, visual growth reduction)
Assay type: in vivo
Settings: post-emergence, 336 h, 140 g ai/ha
Outline: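 Visual percent injury (0-100) rated 14 d after treatment, relative to nontreated and solvent-blank plants. Test plants at first or second true leaf stage received an overhead track-sprayer application at 187 L/ha. Compounds were formulated in aqueous acetone/DMSO carrier containing crop oil concentrate and X-77 surfactant.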

[1] = ECHCG: barnyardgrass (Echinochloa crus-galli), 14 days after application, read-out: Visual Growth Reduction (%) 14 Days After Application, ECHCG
[2] = IPOHE: ivy-leaf morning glory (Ipomoea hederacea), 14 days after application, read-out: Visual Growth Reduction (%) 14 Days After Application, IPOHE
[3] = KCHSC: kochia (Bassia scoparia), 14 days after application, read-out: Visual Growth Reduction (%) 14 Days After Application, KCHSC
[4] = ORYSA: rice (Oryza sativa), 14 days after application, read-out: Visual Growth Reduction (%) 14 Days After Application, ORYSA
[5] = SETFA: giant foxtail (Setaria faberi), 14 days after application, read-out: Visual Growth Reduction (%) 14 Days After Application, SETFA
[6] = SORVU: grain sorghum (Sorghum vulgare), 14 days after application, read-out: Visual Growth Reduction (%) 14 Days After Application, SORVU
[7] = STEME: common chickweed (Stellaria media), 14 days after application, read-out: Visual Growth Reduction (%) 14 Days After Application, STEME
[8] = TRZAS: wheat, spring (Triticum aestivum), 14 days after application, read-out: Visual Growth Reduction (%) 14 Days After Application, TRZAS
[9] = blackgrass (Alopecurus myosuroides), 14 Days After Application, read-out: Visual Growth Reduction (%) ALOMY
[10] = canada thistle (Cirsium arvense), 14 Days After Application, read-out: Visual Growth Reduction (%) CIRAR
[11] = crabgrass (Digitaria sanguinalis), 14 Days After Application, read-out: Visual Growth Reduction (%) DIGSA
[12] = lambsquarters (Chenopodium album), 14 Days After Application, read-out: Visual Growth Reduction (%) CHEAL
[13] = redroot pigweed (Amaranthus retroflexus), 14 Days After Application, read-out: Visual Growth Reduction (%) AMARE
[14] = wild oat (Avena fatua), 14 Days After Application, read-out: Visual Growth Reduction (%) AVEFA
[15] = yellow nutsedge (Cyperus esculentus), 14 Days After Application, read-out: Visual Growth Reduction (%) CYPES
[16] = ALOMY: blackgrass (Alopecurus myosuroides), 14 days after application, read-out: Visual Growth Reduction (%) 14 Days After Application, ALOMY
[17] = AMARE: redroot pigweed (Amaranthus retroflexus), 14 days after application, read-out: Visual Growth Reduction (%) 14 Days After Application, AMARE
[18] = AVEFA: wild oat (Avena fatua), 14 days after application, read-out: Visual Growth Reduction (%) 14 Days After Application, AVEFA
[19] = CHEAL: lambsquarters (Chenopodium album), 14 days after application, read-out: Visual Growth Reduction (%) 14 Days After Application, CHEAL
[20] = CIRAR: canada thistle (Cirsium arvense), 14 days after application, read-out: Visual Growth Reduction (%) 14 Days After Application, CIRAR
[21] = CYPES: yellow nutsedge (Cyperus esculentus), 14 days after application, read-out: Visual Growth Reduction (%) 14 Days After Application, CYPES
[22] = DIGSA: crabgrass (Digitaria sanguinalis), 14 days after application, read-out: Visual Growth Reduction (%) 14 Days After Application, DIGSA

Row | Structure (SMILES) | pest or weed control at 140 g/ha [1] | pest or weed control at 140 g/ha [2] | pest or weed control at 140 g/ha [3] | pest or weed control at 140 g/ha [4] | pest or weed control at 140 g/ha [5] | pest or weed control at 140 g/ha [6] | pest or weed control at 140 g/ha [7] | pest or weed control at 140 g/ha [8] | pest or weed control at 140 g/ha [9] | pest or weed control at 140 g/ha [10] | pest or weed control at 140 g/ha [11] | pest or weed control at 140 g/ha [12] | pest or weed control at 140 g/ha [13] | pest or weed control at 140 g/ha [14] | pest or weed control at 140 g/ha [15] | pest or weed control at 140 g/ha [16] | pest or weed control at 140 g/ha [17] | pest or weed control at 140 g/ha [18] | pest or weed control at 140 g/ha [19] | pest or weed control at 140 g/ha [20] | also measured
1 | COC(=O)c1nc(-c2ccc(OC(F)(F)F)cc2Cl)c(F)cc1Cl [F210, Methyl 3-chloro-6-(2-chloro-4-(trifluoromethoxy)phenyl)-5-fluoropicolinate] | 60 to 74% | 95 to 100% | 75 to 84% | 0 to 29% | 85 to 94% | 95 to 100% | 0 to 29% | 45 to 59% | 45 to 59% | 85 to 94% | 85 to 94% | 85 to 94% | 95 to 100% | 60 to 74% | 0 to 29% | – | – | – | – | – | –
2 | COC(=O)c1nc(-c2ccc(C(F)(F)F)cc2Cl)ccc1Cl [F66, methyl 3-chloro-6-(2-chloro-4-(trifluoromethyl)phenyl)picolinate] | 95 to 100% | 95 to 100% | 60 to 74% | 45 to 59% | 95 to 100% | 85 to 94% | 0 to 29% | – | – | – | – | – | – | – | – | 45 to 59% | 95 to 100% | 60 to 74% | 85 to 94% | 95 to 100% | pest or weed control at 140 g/ha [21]: 0 to 29%; pest or weed control at 140 g/ha [22]: 95 to 100%
3 | COC(=O)c1nc(-c2ccc(C(F)F)cc2OC)c(F)cc1Cl [F275, Methyl 3-chloro-6-(4-(difluoromethyl)-2-methoxyphenyl)-5-fluoropicolinate] | 0 to 29% | 95 to 100% | 85 to 94% | 0 to 29% | 45 to 59% | 45 to 59% | 0 to 29% | 0 to 29% | 0 to 29% | 95 to 100% | 0 to 29% | 85 to 94% | 60 to 74% | 0 to 29% | 0 to 29% | – | – | – | – | – | –
4 | COC(=O)c1nc(-c2ccc(N)cc2)c(F)cc1Cl [F247, Methyl 6-(4-aminophenyl)-3-chloro-5-fluoropicolinate] | 0 to 29% | 0 to 29% | 0 to 29% | 0 to 29% | 0 to 29% | 0 to 29% | 0 to 29% | 0 to 29% | 0 to 29% | 0 to 29% | 0 to 29% | 60 to 74% | 0 to 29% | 0 to 29% | 0 to 29% | – | – | – | – | – | –
5 | COC(=O)c1nc(-c2ccc(C3(C#N)CC3)cc2Cl)ccc1Cl [F236, Methyl 3-chloro-6-(2-chloro-4-(1-cyanocyclopropyl)phenyl)picolinate] | 0 to 29% | 95 to 100% | 75 to 84% | 0 to 29% | 75 to 84% | 75 to 84% | 45 to 59% | 0 to 29% | 0 to 29% | 85 to 94% | 75 to 84% | 85 to 94% | 30 to 44% | 0 to 29% | 0 to 29% | – | – | – | – | – | –
6 | COC(=O)c1nc(-c2cc(F)c(C(F)(F)F)cc2Cl)c(F)cc1Cl [F241, Methyl 3-chloro-6-(2-chloro-5-fluoro-4-(trifluoromethyl)phenyl)-5-fluoropicolinate] | 60 to 74% | 95 to 100% | 95 to 100% | 0 to 29% | 95 to 100% | 95 to 100% | 0 to 29% | 75 to 84% | 60 to 74% | 95 to 100% | 95 to 100% | 95 to 100% | 95 to 100% | 85 to 94% | 60 to 74% | – | – | – | – | – | –
7 | O=C(O)c1nc(-c2ncc(C(F)(F)F)cc2Cl)ccc1Cl [F164, 3′,5-Dichloro-5′-(trifluoromethyl)-[2,2′-bipyridine]-6-carboxylic acid] | 85 to 94% | 95 to 100% | 95 to 100% | 60 to 74% | 95 to 100% | 85 to 94% | 30 to 44% | 85 to 94% | – | – | – | – | – | – | – | 60 to 74% | 95 to 100% | 60 to 74% | 95 to 100% | 85 to 94% | pest or weed control at 140 g/ha [21]: 0 to 29%; pest or weed control at 140 g/ha [22]: 95 to 100%
8 | COC(=O)c1nc(-c2ccc3c(c2)C(F)(F)OC(F)(F)O3)c(Cl)cc1Cl [F202, Methyl 3,5-dichloro-6-(2,2,4,4-tetrafluoro-4H-benzo[d][1,3]dioxin-6-yl)picolinate] | 0 to 29% | 0 to 29% | 0 to 29% | 0 to 29% | 0 to 29% | 0 to 29% | 0 to 29% | 0 to 29% | 0 to 29% | 0 to 29% | 0 to 29% | 0 to 29% | 0 to 29% | 0 to 29% | 0 to 29% | – | – | – | – | – | –
9 | COC(=O)c1nc(-c2cc(OC)c(C(F)(F)F)cc2Cl)c(F)cc1Cl [F331, Methyl 3-chloro-6-(2-chloro-5-methoxy-4-(trifluoromethyl)phenyl)-5-fluoropicolinate] | 0 to 29% | 95 to 100% | 60 to 74% | 0 to 29% | 0 to 29% | 45 to 59% | 0 to 29% | 0 to 29% | 0 to 29% | – | 0 to 29% | 45 to 59% | 45 to 59% | 0 to 29% | 0 to 29% | – | – | – | – | – | –
10 | COC(=O)c1nc(-c2ccc(C(F)(F)F)nc2)c(Cl)cc1Cl [F99, methyl 3,5-dichloro-6′-(trifluoromethyl)-[2,3′-bipyridine]-6-carboxylate] | 0 to 29% | 0 to 29% | 0 to 29% | 0 to 29% | 0 to 29% | 0 to 29% | 0 to 29% | 0 to 29% | – | – | – | – | – | – | – | 0 to 29% | 0 to 29% | 0 to 29% | 0 to 29% | 0 to 29% | pest or weed control at 140 g/ha [21]: 0 to 29%; pest or weed control at 140 g/ha [22]: 0 to 29%
